{"source": "patent US12617779B2", "about": "“Self degradation-type CDK9 inhibitor prodrug and liposome encapsulating same” (Sumitomo Pharma Co., Ltd., priority 2021, dated 2026)", "key": {"[1]": {"conditions": "mice, 2.5 mg/kg administration; cited from earlier work"}, "[2]": {"test": "Evaluation of conversion rate to active form in buffer solution (Experimental Example 1)", "assay_type": "physicochemical", "method_in_brief": "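HPLC read-out: residual parent and Alvocidib production rate after 0, 0.5, 1, 2 and 3 hours. Compounds sat at 25 umol/L, 37° C, in buffers from pH 5.0 to 7.4 (50 mM citrate below pH 6.0, 50 mM phosphate otherwise).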"}, "[3]": {"test": "Evaluation of conversion rate to active form in human plasma (Experimental Example 3)", "assay_type": "in vitro ADME", "conditions": "human, 0.2 μmol/L", "method_in_brief": "(§1)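 LC-MS/MS (positive ESI) followed the parent and released Alvocidib during 37° C incubation of 0.2 μmol/L compound in human or BALB/c mouse plasma, sampled at 0/30/60 or 0/60/120 min. Remaining parent is expressed versus the 0-min peak; conversion versus a 0.2 μmol/L Alvocidib standard.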"}, "[4]": {"test": "Evaluation of conversion rate to active form in BALB/c mouse plasma (Experimental Example 3)", "assay_type": "in vitro ADME", "conditions": "BALB/c, mouse, 0.2 μmol/L", "method_in_brief": "as §1"}, "[5]": {"test": "Pharmacokinetic test, intravenous solution and liposome formulations in mice (Experimental Example 6)", "assay_type": "in vivo", "conditions": "female BALB/c mice", "experimental": "This was used as a solution formulation.\nThis was used as a liposome formulation.\nHydrogenated soybean phosphatidylcholine (COATSOME NC-21E, manufactured by NOF CORPORATION, 3.238 g), cholesterol (manufactured by Sigma, 1.160 g) and 1,2-disteroyl-rac-glycero-3-methylpolyoxyethylen 2000 (SUNBRIGHT GS-020, manufactured by NOF CORPORATION, 0.983 g) were dissolved in tert-butyl alcohol (300 mL) warmed to 65° C. The solution was placed in an eggplant flask and frozen in a dry ice-acetone bath, and then the tert-butyl alcohol was removed by evaporation under reduced pressure to give a lipid mixture.\nTo the above lipid mixture was added to a 250 mM ammonium sulfate solution (100 mL), and the mixture was warmed to 65° C., and dispersed by a homogenizer (ULTRA-TURRAX, manufactured by IKA) to give a crude liposome dispersion. […] The solution was filtered through a 0.22 μm membrane filter to adjust the total lipid concentration to 75 mM (75 μmol/mL). […] The solution was adjusted to pH 5 to 6 with 1 mol/L aqueous sodium hydroxide solution, warmed in a 65° C. water bath for 3 minutes, and ice-cooled. The liposome outer solution was replaced with 10 mM tartrate buffer solution/10% sucrose solution (pH 4) using a dialysis cassette (Slide-A-Lyzer G2 Dialysis Cassettes 20K MWCO, manufactured by Thermo Scientific), followed by filtration through a 0.22 μm membrane filter to adjust the concentration.\nThe solution formulation or liposome formulation was instantly administered intravenously to 7-week-old female BALB/c mice, and the blood was collected over time from the jugular vein without anesthesia up to 24 hours after administration for the solution formulation administration group and up to 72 hours after administration for the liposome formulation administration group. […] The plasma sample was centrifuged, and the concentrations of the test compound and Alvocidib in the obtained supernatant were determined by LC-MS/MS."}}}
{"smiles": "CN1CC[C@H](c2c(O)cc(O)c3c(=O)cc(-c4ccccc4Cl)oc23)[C@H](O)C1", "note": "[Alvocidib]", "values": [{"measurement": "AUC", "setting": "[1]", "value": 3.4, "unit": "µmol·min/L"}]}
{"smiles": "CCC(=O)O[C@@H]1CN(C)CC[C@@H]1c1c(O)cc(O)c2c(=O)cc(-c3ccccc3Cl)oc12", "note": "[Comparative Example 6]", "values": [{"measurement": "Production rate of Alvocidib", "setting": "[2]; pH7.4, 0 hr", "value": 4.3, "unit": "%"}, {"measurement": "Residual rate", "setting": "[2]; pH7.4, 0 hr", "value": 93.7, "unit": "%"}, {"measurement": "Conversion to Alvocidib at pH 7.4", "setting": "[2]; pH 7.4, 37° C., up to 3 hours", "value": "slowly converted to Alvocidib"}, {"measurement": "Production rate of Alvocidib", "setting": "[2]; pH7.4, 0.5 hr", "value": 4.4, "unit": "%"}, {"measurement": "Residual rate", "setting": "[2]; pH7.4, 0.5 hr", "value": 93.6, "unit": "%"}, {"measurement": "Production rate of Alvocidib", "setting": "[2]; pH7.4, 1 hr", "value": 4.5, "unit": "%"}, {"measurement": "Residual rate", "setting": "[2]; pH7.4, 1 hr", "value": 95.1, "unit": "%"}, {"measurement": "Production rate of Alvocidib", "setting": "[2]; pH7.4, 2 hr", "value": 4.7, "unit": "%"}, {"measurement": "Residual rate", "setting": "[2]; pH7.4, 2 hr", "value": 94.9, "unit": "%"}, {"measurement": "Production rate (%) of Alvocidib", "setting": "[3]; 0 min", "value": 5, "unit": "%"}, {"measurement": "Residual rate (%) of test compound", "setting": "[3]; 0 min", "value": 100, "unit": "%"}, {"measurement": "Production rate (%) of Alvocidib", "setting": "[3]; 60 min", "value": 12, "unit": "%"}, {"measurement": "Residual rate (%) of test compound", "setting": "[3]; 60 min", "value": 89, "unit": "%"}, {"measurement": "Production rate (%) of Alvocidib", "setting": "[3]; 120 min", "value": 15, "unit": "%"}, {"measurement": "Residual rate (%) of test compound", "setting": "[3]; 120 min", "value": 89, "unit": "%"}, {"measurement": "Production rate (%) of Alvocidib", "setting": "[4]; 0 min", "value": 6, "unit": "%"}, {"measurement": "Residual rate (%) of test compound", "setting": "[4]; 0 min", "value": 100, "unit": "%"}, {"measurement": "Production rate (%) of Alvocidib", "setting": "[4]; 60 min", "value": 48, "unit": "%"}, {"measurement": "Residual rate (%) of test compound", "setting": "[4]; 60 min", "value": 48, "unit": "%"}, {"measurement": "Production rate (%) of Alvocidib", "setting": "[4]; 120 min", "value": 66, "unit": "%"}, {"measurement": "Residual rate (%) of test compound", "setting": "[4]; 120 min", "value": 33, "unit": "%"}, {"measurement": "Blood retention of liposome formulation compared with the corresponding solution formulation", "setting": "[5]", "value": "did not show improved blood retention"}]}
